Experimental data taken from patent US6737383B1, “Herbicidal oxadiazolidines” (priority 1999, dated 2004).

Columns and labels:
cocklebur = assay: Test B pre/postemergence cocklebur; assay type: in vivo, Xanthium strumarium
In short: (§1)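 Herbicidal effect was estimated by eye on a ten-point control scale after plants spent twelve to sixteen days in a greenhouse following soil or foliar treatment. Foliar sprays targeted plants at one to four leaves; all doses were formulated in a non-phytotoxic solvent with surfactant.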

corn = assay: Test B pre/postemergence corn; assay type: in vivo, Zea mays
In short: as §1

crabgrass = assay: Test B pre/postemergence crabgrass; assay type: in vivo, Digitaria sanguinalis
In short: as §1

giant foxtail = assay: Test B pre/postemergence giant foxtail; assay type: in vivo, Setaria faberii
In short: as §1

morningglory = assay: Test B pre/postemergence morningglory; assay type: in vivo, Ipomoea hederacea
In short: as §1

pigweed = assay: Test B pre/postemergence pigweed; assay type: in vivo, Amaranthus retroflexus
In short: as §1

rape = assay: Test B pre/postemergence rape; assay type: in vivo, Brassica napus
In short: as §1

soybean = assay: Test B pre/postemergence soybean; assay type: in vivo, Glycine max
In short: as §1

sugar beet = assay: Test B pre/postemergence sugar beet; assay type: in vivo, Beta vulgaris; conditions: for Plant response rating, Sugarbeets: Rate 250 g/ha
In short: as §1

velvetleaf = assay: Test B pre/postemergence velvetleaf; assay type: in vivo, Abutilon theophrasti; conditions: for Plant response rating, Velvetleaf: Rate 250 g/ha
In short: as §1

wheat = assay: Test B pre/postemergence wheat; assay type: in vivo, Triticum aestivum; conditions: for Plant response rating, Wheat: Rate 250 g/ha
In short: as §1

wild oat = assay: Test B pre/postemergence wild oat; assay type: in vivo, Avena fatua; conditions: for Plant response rating, Wild oats: Rate 250 g/ha
In short: as §1

purple nutsedge = assay: Test B pre/postemergence purple nutsedge; assay type: in vivo, Cyperus rotundus
In short: as §1

rice = assay: Test B flood test rice; assay type: in vivo, Oryza sativa
In short: (§2)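 Flood test on plants grown to the 2-leaf stage; treated plants kept in greenhouse twelve to sixteen days, then visually rated against controls on a 0 (no effect) to 10 (complete control) scale.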

smallflower flatsedge = assay: Test B flood test smallflower flatsedge; assay type: in vivo, Cyperus difformis
In short: as §2

duck salad = assay: Test B flood test duck salad; assay type: in vivo, Heteranthera limosa
In short: as §2

[1] = Postemergence, Rate 62 g/ha, scale 0 to 10, 0 is no effect, 10 is complete control
[2] = Postemergence, Rate 125 g/ha, scale of 0 to 10 where 0 is no effect and 10 is complete control
[3] = Postemergence, Rate 250 g/ha, scale 0 to 10, 0 no effect, 10 complete control
[4] = Preemergence, Rate 62 g/ha, scale 0 to 10 (0 no effect, 10 complete control)
[5] = Preemergence, Rate 125 g/ha, scale 0 to 10 (0 no effect, 10 complete control)
[6] = Preemergence, Rate 250 g/ha, scale of 0 to 10 where 0 is no effect and 10 is complete control
[7] = Rate 500 g/ha, Postemergence, scale 0 to 10, 0 no effect, 10 complete control
[8] = Preemergence, Rate 500 g/ha, scale 0 (no effect) to 10 (complete control)
[9] = Rate 250 g/ha, Postemergence, scale 0 to 10, 0 is no effect, 10 is complete control
[10] = Preemergence, Rate 125 g/ha, 0 is no effect, 10 is complete control
[11] = Preemergence, scale of 0 to 10 where 0 is no effect and 10 is complete control
[12] = Postemergence, scale 0 to 10, 0 is no effect, 10 is complete control
[13] = Postemergence (flood test species), Rate 125 g/ha, scale of 0 to 10 where 0 is no effect and 10 is complete control
[14] = Rate 250 g/ha, Postemergence (flood test), scale 0 to 10, 0 is no effect, 10 is complete control
[15] = Rate 250 g/ha, headed Pre-emergence (flood test species), scale 0 to 10 (0 no effect, 10 complete control)
[16] = Rate 500 g/ha, headed Pre-emergence (flood test species), scale 0 to 10 (0 no effect, 10 complete control)
[17] = Rate 500 g/ha, listed under Postemergence (flood test species), scale 0 to 10, 0 no effect, 10 complete control
[18] = Rate 1000 g/ha, Pre-emergence (as headed), scale 0 to 10
[19] = Rate 2000 g/ha, Pre-emergence (as headed), scale 0 to 10

## CC(C)N(C(=O)n1oc(=O)n(Cc2ccccc2)c1=O)c1ccccc1 [Compound 94]
cocklebur; [1]
  Cocklebur plant response rating: 0
cocklebur; [2]
  Cocklebur plant response rating: 1
cocklebur; [3]
  Cocklebur plant response rating: 1
cocklebur; [4]
  Cocklebur plant response rating: 0
cocklebur; [5]
  Plant response rating, Cocklebur: 0
cocklebur; [6]
  Plant response rating, Cocklebur: 0
cocklebur; [7]
  Cocklebur plant response rating: 3
corn; [1]
  Corn plant response rating: 0
corn; [2]
  Corn plant response rating: 0
corn; [3]
  Corn plant response rating: 0
corn; [4]
  Corn plant response rating: 0
corn; [5]
  Plant response rating, Corn: 2
corn; [6]
  Plant response rating, Corn: 3
corn; [8]
  Corn plant response rating: 6
corn; [7]
  Corn plant response rating: 0
crabgrass; [1]
  Crabgrass plant response rating: 3
crabgrass; [2]
  Crabgrass plant response rating: 3
crabgrass; [3]
  Crabgrass plant response rating: 8
crabgrass; [4]
  Crabgrass plant response rating: 3
crabgrass; [5]
  Plant response rating, Crabgrass: 3
crabgrass; [6]
  Plant response rating, Crabgrass: 6
crabgrass; [8]
  Crabgrass plant response rating: 10
crabgrass; [7]
  Crabgrass plant response rating: 9
Giant foxtail; [1]
  Giant foxtail plant response rating: 0
Giant foxtail; [2]
  Giant foxtail plant response rating: 0
Giant foxtail; [3]
  Giant foxtail plant response rating: 5
Giant foxtail; [4]
  Giant foxtail plant response rating: 8
Giant foxtail; [5]
  Plant response rating, Giant foxtail: 9
Giant foxtail; [6]
  Plant response rating, Giant foxtail: 9
Giant foxtail; [8]
  Giant foxtail plant response rating: 10
Giant foxtail; [7]
  Giant foxtail plant response rating: 8
morningglory; [1]
  Morningglory plant response rating: 10
morningglory; [2]
  Morningglory plant response rating: 10
morningglory; [3]
  Morningglory plant response rating: 10
morningglory; [4]
  Morningglory plant response rating: 0
morningglory; [5]
  Plant response rating, Morningglory: 0
morningglory; [6]
  Plant response rating, Morningglory: 0
morningglory; [8]
  Morningglory plant response rating: 0
morningglory; [7]
  Morningglory plant response rating: 10
pigweed; [1]
  Redroot pigweed plant response rating: 0
pigweed; [2]
  Redroot pigweed plant response rating: 0
pigweed; [4]
  Redroot pigweed plant response rating: 0
pigweed; [5]
  Plant response rating, Redroot pigweed: 0
pigweed; [6]
  Plant response rating, Redroot pigweed: 0
pigweed; [8]
  Redroot pigweed plant response rating: 4
pigweed; [9]
  Plant response rating, Redroot pigweed: 2
pigweed; [7]
  Redroot pigweed plant response rating: 4
rape; [1]
  Rape plant response rating: 1
rape; [2]
  Rape plant response rating: 2
rape; [3]
  Rape plant response rating: 2
rape; [4]
  Rape plant response rating: 0
rape; [5]
  Plant response rating, Rape: 0
rape; [6]
  Plant response rating, Rape: 2
rape; [8]
  Rape plant response rating: 5
rape; [7]
  Rape plant response rating: 3
soybean; [1]
  Soybean plant response rating: 5
soybean; [2]
  Soybean plant response rating: 5
soybean; [4]
  Soybean plant response rating: 0
soybean; [5]
  Plant response rating, Soybean: 0
soybean; [6]
  Plant response rating, Soybean: 0
soybean; [8]
  Soybean plant response rating: 0
soybean; [9]
  Plant response rating, Soybean: 5
soybean; [7]
  Soybean plant response rating: 5
Sugar beet; [1]
  Sugarbeets plant response rating: 2
Sugar beet; [2]
  Sugarbeets plant response rating: 2
Sugar beet; [4]
  Sugarbeets plant response rating: 0
Sugar beet; [10]
  Sugarbeets plant response rating (0 to 10 scale): 0
Sugar beet; [11]
  Plant response rating, Sugarbeets: 0
Sugar beet; [8]
  Sugarbeets plant response rating: 2
Sugar beet; [12]
  Plant response rating, Sugarbeets: 2
Sugar beet; [7]
  Sugarbeets plant response rating: 3
velvetleaf; [1]
  Velvetleaf plant response rating: 0
velvetleaf; [2]
  Velvetleaf plant response rating: 0
velvetleaf; [4]
  Velvetleaf plant response rating: 0
velvetleaf; [10]
  Velvetleaf plant response rating (0 to 10 scale): 0
velvetleaf; [11]
  Plant response rating, Velvetleaf: 0
velvetleaf; [8]
  Velvetleaf plant response rating: 3
velvetleaf; [12]
  Plant response rating, Velvetleaf: 4
velvetleaf; [7]
  Velvetleaf plant response rating: 6
wheat; [1]
  Wheat plant response rating: 0
wheat; [2]
  Wheat plant response rating: 0
wheat; [4]
  Wheat plant response rating: 0
wheat; [10]
  Wheat plant response rating (0 to 10 scale): 0
wheat; [11]
  Plant response rating, Wheat: 0
wheat; [8]
  Wheat plant response rating: 0
wheat; [12]
  Plant response rating, Wheat: 0
wheat; [7]
  Wheat plant response rating: 0
Wild oat; [1]
  Wild oats plant response rating: 0
Wild oat; [2]
  Wild oats plant response rating: 0
Wild oat; [4]
  Wild oats plant response rating: 0
Wild oat; [10]
  Wild oats plant response rating (0 to 10 scale): 3
Wild oat; [11]
  Plant response rating, Wild oats: 4
Wild oat; [8]
  Wild oats plant response rating: 6
Wild oat; [12]
  Plant response rating, Wild oats: 0
Wild oat; [7]
  Wild oats plant response rating: 1
Purple nutsedge; [1]
  Nutsedge plant response rating: 0
Purple nutsedge; [2]
  Nutsedge plant response rating: 0
Purple nutsedge; [3]
  Nutsedge plant response rating: 0
Purple nutsedge; [4]
  Nutsedge plant response rating: 0
Purple nutsedge; [5]
  Plant response rating, Nutsedge: 0
Purple nutsedge; [6]
  Plant response rating, Nutsedge: 0
Purple nutsedge; [8]
  Nutsedge plant response rating: 0
Purple nutsedge; [7]
  Nutsedge plant response rating: 0
rice; [13]
  Rice plant response rating: 0
rice; [1]
  Rice plant response rating: 0
rice; [14]
  Plant response rating, Rice: 0
rice; [15]
  Rice plant response rating: 0
rice; [16]
  Plant response rating, Rice: 0
rice; [17]
  Rice plant response rating: 0
rice; [18]
  Rice plant response rating: 0
rice; [19]
  Rice plant response rating: 0
Smallflower flatsedge; [13]
  S. Flatsedge plant response rating: 0
Smallflower flatsedge; [1]
  S. Flatsedge plant response rating: 0
Smallflower flatsedge; Pre-emergence, Rate 1000 g/ha, scale 0 to 10 (0 no effect, 10 complete control)
  S. Flatsedge plant response rating: 0
Smallflower flatsedge; [14]
  Plant response rating, S. Flatsedge: 0
Smallflower flatsedge; [15]
  S. Flatsedge plant response rating: 0
Smallflower flatsedge; [16]
  Plant response rating, S. Flatsedge: 0
Smallflower flatsedge; [17]
  S. Flatsedge plant response rating: 9
Smallflower flatsedge; [19]
  S. Flatsedge plant response rating: 8
Duck salad; [13]
  Ducksalad plant response rating: 0
Duck salad; [1]
  Ducksalad plant response rating: 0
Duck salad; [15]
  Ducksalad plant response rating: 0
Duck salad; [16]
  Plant response rating, Ducksalad: 0
Duck salad; [17]
  Ducksalad plant response rating: 2
Duck salad; [18]
  Ducksalad plant response rating: 0
Duck salad; [19]
  Ducksalad plant response rating: 0
Duck salad; flood test, listed under Postemergence, Rate 250 g/ha, scale 0 to 10, 0 no effect, 10 complete control
  Ducksalad plant response rating: 0
